Test results published in patent US11254686B1 (Corvus Pharmaceuticals, Inc., priority 2017, dated 2022).

Assays:
Assay type in all cases: biochemical
adenosine A2A receptor = adenosine A2A receptor (Homo sapiens (Human), UniProt P29274); assay: Adenosine receptor activity assay (Table 1), A2A activity; conditions: read-out: Ave A2A cAMP IC50
adenosine A1 receptor = adenosine A1 receptor (Homo sapiens (Human), UniProt P30542); assay: Adenosine receptor activity assay (Table 1), A1 cAMP
Protocol: (§1) Table 1. Compounds (e.g., Adenosine Receptor modulators) and activity assay results. The legend is as follows: A=<10 nM; B=10-50 nM; C=50-100 nM; D=100-500; and E=>500 nM. The ratio corresponds to the A2A activity to the A2B activity; or A2A/A2B.

adenosine A2B receptor = adenosine A2B receptor (Homo sapiens (Human), UniProt P29275); assay: Adenosine receptor activity assay (Table 1), A2B activity; conditions: for Ratio: A2A activity to the A2B activity, A2A/A2B; for IC50: read-out: Ave A2B cAMP IC50
adenosine A3 receptor = adenosine A3 receptor (Homo sapiens (Human), UniProt P0DMS8); assay: Adenosine receptor activity assay (Table 1), A3 cAMP
Protocol: as §1

Chain of adenosine A3 receptor (P0DMS8 whole entry): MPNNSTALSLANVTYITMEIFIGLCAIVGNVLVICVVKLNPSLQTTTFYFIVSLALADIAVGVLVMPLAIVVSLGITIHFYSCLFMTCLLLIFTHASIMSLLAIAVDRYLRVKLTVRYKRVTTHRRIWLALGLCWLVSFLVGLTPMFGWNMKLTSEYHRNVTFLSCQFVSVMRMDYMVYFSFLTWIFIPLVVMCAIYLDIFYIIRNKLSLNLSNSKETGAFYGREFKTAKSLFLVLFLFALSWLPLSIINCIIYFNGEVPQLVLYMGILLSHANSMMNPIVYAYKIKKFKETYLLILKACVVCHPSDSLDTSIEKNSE
Chain of adenosine A2B receptor (P29275 whole entry): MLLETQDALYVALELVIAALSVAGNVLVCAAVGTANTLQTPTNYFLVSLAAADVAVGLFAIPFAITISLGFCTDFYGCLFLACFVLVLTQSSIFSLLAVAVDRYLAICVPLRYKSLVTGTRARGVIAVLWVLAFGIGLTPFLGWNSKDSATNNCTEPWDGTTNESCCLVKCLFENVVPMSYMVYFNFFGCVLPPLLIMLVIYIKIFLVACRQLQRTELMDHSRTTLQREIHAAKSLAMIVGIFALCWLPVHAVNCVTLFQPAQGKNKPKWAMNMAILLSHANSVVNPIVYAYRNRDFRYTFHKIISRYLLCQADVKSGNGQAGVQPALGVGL
Chain of adenosine A1 receptor (P30542 whole entry): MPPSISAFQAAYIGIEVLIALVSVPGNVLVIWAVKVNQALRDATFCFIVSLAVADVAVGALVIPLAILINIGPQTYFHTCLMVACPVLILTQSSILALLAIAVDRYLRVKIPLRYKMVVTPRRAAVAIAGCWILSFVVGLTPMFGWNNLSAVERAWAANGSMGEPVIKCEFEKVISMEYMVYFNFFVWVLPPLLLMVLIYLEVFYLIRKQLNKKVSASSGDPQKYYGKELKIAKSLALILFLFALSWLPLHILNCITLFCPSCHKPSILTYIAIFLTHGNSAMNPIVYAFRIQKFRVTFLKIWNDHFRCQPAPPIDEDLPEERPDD
Chain of adenosine A2A receptor (P29274 whole entry): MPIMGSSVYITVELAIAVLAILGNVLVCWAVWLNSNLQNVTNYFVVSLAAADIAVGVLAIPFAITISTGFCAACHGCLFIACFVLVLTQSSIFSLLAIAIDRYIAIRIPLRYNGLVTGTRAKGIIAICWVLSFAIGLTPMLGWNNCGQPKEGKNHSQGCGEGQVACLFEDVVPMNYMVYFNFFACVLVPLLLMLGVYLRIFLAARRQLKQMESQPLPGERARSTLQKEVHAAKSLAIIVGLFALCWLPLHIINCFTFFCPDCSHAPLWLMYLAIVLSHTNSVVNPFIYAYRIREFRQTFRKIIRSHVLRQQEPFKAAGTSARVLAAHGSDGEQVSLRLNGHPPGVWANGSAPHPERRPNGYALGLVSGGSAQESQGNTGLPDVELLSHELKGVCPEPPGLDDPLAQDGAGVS

Compound: COCC1CN(C(=O)c2nc(N[C@@H](C)c3ccccn3)nc3c(C)csc23)C1 [Example Z553, (S)-(3-(methoxymethyl)azetidin-1-yl)(7-methyl-2-((1-(pyridin-2-yl)ethyl)amino)thieno[3,2-d]pyrimidin-4-yl)methanone]
- IC50 (adenosine A2A receptor): 10 to 50 nM
- IC50 (adenosine A1 receptor): > 500 nM
- Ratio (adenosine A2B receptor): 3.87
- IC50 (adenosine A2B receptor): < 10 nM
- IC50 (adenosine A3 receptor): 100 to 500 nM

Compound: (S)—N-((6-methoxypyridin-2-yl)methyl)-6-methyl-2-((1-(pyridin-2-yl)ethyl)amino)thieno[3,2-d]pyrimidine-4-carboxamide [Example Z464]
- IC50 (adenosine A2A receptor): 100 to 500 nM
- IC50 (adenosine A1 receptor): > 500 nM
- Ratio (adenosine A2B receptor): 19.50
- IC50 (adenosine A2B receptor): < 10 nM
- IC50 (adenosine A3 receptor): 50 to 100 nM

Compound: Cc1cc2nc(N[C@@H](C)c3cncc(F)c3)nc(C(=O)N3CC(NC(=O)OC(C)C)C3)c2s1 [Example Z511, Isopropyl (S)-(1-(2-((1-(5-fluoropyridin-3-yl)ethyl)amino)-6-methylthieno[3,2-d]pyrimidine-4-carbonyl)azetidin-3-yl)carbamate]
- IC50 (adenosine A2A receptor): 10 to 50 nM
- IC50 (adenosine A1 receptor): > 500 nM
- Ratio (adenosine A2B receptor): 2.90
- IC50 (adenosine A2B receptor): 10 to 50 nM
- IC50 (adenosine A3 receptor): 50 to 100 nM

Compound: COCCC(=O)NC1CN(C(=O)c2nc(N[C@@H](C)c3cncc(F)c3)nc3cc(C)sc23)C1 [Example Z518, (S)—N-(1-(2-((1-(5-Fluoropyridin-3-yl)ethyl)amino)-6-methylthieno[3,2-d]pyrimidine-4-carbonyl)azetidin-3-yl)-3-methoxypropanamide]
- IC50 (adenosine A2A receptor): 10 to 50 nM
- IC50 (adenosine A1 receptor): > 500 nM
- Ratio (adenosine A2B receptor): 5.46
- IC50 (adenosine A2B receptor): < 10 nM
- IC50 (adenosine A3 receptor): > 500 nM

Compound: Cc1cc2nc(N[C@@H](C)c3cncc(F)c3)nc(C(=O)N3CC[C@@H](NC(=O)OCc4ccccc4)C3)c2s1 [Example Z491, Benzyl ((R)-1-(2-(((S)-1-(5-fluoropyridin-3-yl)ethyl)amino)-6-methylthieno[3,2-d]pyrimidine-4-carbonyl)pyrrolidin-3-yl)carbamate]
- IC50 (adenosine A2A receptor): > 500 nM
- IC50 (adenosine A1 receptor): > 500 nM
- Ratio (adenosine A2B receptor): 86.94
- IC50 (adenosine A2B receptor): 10 to 50 nM
- IC50 (adenosine A3 receptor): > 500 nM

Compound: Cc1cc2nc(N[C@@H](C)c3cncc(F)c3)nc(C(=O)N3CC[C@H]3C)c2s1 [Example Z595, (2-(((S)-1-(5-Fluoropyridin-3-yl)ethyl)amino)-6-methylthieno[3,2-d]pyrimidin-4-yl)((R)-2-methylazetidin-1-yl)methanone]
- IC50 (adenosine A2A receptor): 10 to 50 nM
- IC50 (adenosine A1 receptor): < 10 nM
- Ratio (adenosine A2B receptor): 9.45
- IC50 (adenosine A2B receptor): < 10 nM
- IC50 (adenosine A3 receptor): < 10 nM

Compound: Cc1cc2nc(N[C@@H](C)c3cncc(F)c3)nc(C(=O)N3CC(CNC(=O)OC(C)(C)C)C3)c2s1 [Example Z475, tert-Butyl (S)-((1-(2-((1-(5-fluoropyridin-3-yl)ethyl)amino)-6-methylthieno[3,2-d]pyrimidine-4-carbonyl)azetidin-3-yl)methyl)carbamate]
- IC50 (adenosine A2A receptor): 100 to 500 nM
- IC50 (adenosine A1 receptor): > 500 nM
- Ratio (adenosine A2B receptor): 7.45
- IC50 (adenosine A2B receptor): 10 to 50 nM
- IC50 (adenosine A3 receptor): > 500 nM

Compound: CNC(=O)N1CCN(C(=O)c2nc(N[C@@H](C)c3cncc(F)c3)nc3ccsc23)C1 [Example Z585, (S)-3-(2-((1-(5-Fluoropyridin-3-yl)ethyl)amino)thieno[3,2-d]pyrimidine-4-carbonyl)-N-methylimidazolidine-1-carboxamide]
- IC50 (adenosine A2A receptor): 100 to 500 nM
- IC50 (adenosine A1 receptor): > 500 nM
- Ratio (adenosine A2B receptor): 21.44
- IC50 (adenosine A2B receptor): 10 to 50 nM
- IC50 (adenosine A3 receptor): > 500 nM

Compound: Cc1cc2nc(N[C@@H](C)c3cncc(F)c3)nc(C(=O)N3CC(CNC(=O)C(C)(C)C)C3)c2s1 [Example Z490, (S)—N-((1-(2-((1-(5-Fluoropyridin-3-yl)ethyl)amino)-6-methylthieno[3,2-d]pyrimidine-4-carbonyl)azetidin-3-yl)methyl)pivalamide]
- IC50 (adenosine A2A receptor): 100 to 500 nM
- IC50 (adenosine A1 receptor): > 500 nM
- Ratio (adenosine A2B receptor): 10.96
- IC50 (adenosine A2B receptor): 10 to 50 nM
- IC50 (adenosine A3 receptor): > 500 nM

Compound: Cc1cc2nc(N[C@@H](C)c3cncc(F)c3)nc(C(=O)N3CC(C(=O)OC(C)(C)C)C3)c2s1 [Example Z573, tert-Butyl (S)-1-(2-((1-(5-fluoropyridin-3-yl)ethyl)amino)-6-methylthieno[3,2-d]pyrimidine-4-carbonyl)azetidine-3-carboxylate]
- IC50 (adenosine A2A receptor): 100 to 500 nM
- IC50 (adenosine A1 receptor): > 500 nM
- Ratio (adenosine A2B receptor): 3.44
- IC50 (adenosine A2B receptor): 10 to 50 nM
- IC50 (adenosine A3 receptor): > 500 nM

Compound: C[C@H](Nc1nc(C(=O)N2CC(NC(=O)C(C)(C)C)C2)c2sccc2n1)c1cncc(F)c1 [Example Z594, (S)—N-(1-(2-((1-(5-Fluoropyridin-3-yl)ethyl)amino)thieno[3,2-d]pyrimidine-4-carbonyl)azetidin-3-yl)pivalamide]
- IC50 (adenosine A2A receptor): < 10 nM
- IC50 (adenosine A1 receptor): > 500 nM
- Ratio (adenosine A2B receptor): 0.15
- IC50 (adenosine A2B receptor): 10 to 50 nM
- IC50 (adenosine A3 receptor): 50 to 100 nM

Compound: Cc1cc2nc(N[C@@H](C)c3ccccn3)nc(C(=O)N3CC(CNC(=O)OC(C)(C)C)C3)c2s1 [Example Z476, tert-Butyl (S)-((1-(6-methyl-2-((1-(pyridin-2-yl)ethyl)amino)thieno[3,2-d]pyrimidine-4-carbonyl)azetidin-3-yl)methyl)carbamate]
- IC50 (adenosine A2A receptor): 100 to 500 nM
- IC50 (adenosine A1 receptor): > 500 nM
- Ratio (adenosine A2B receptor): 5.27
- IC50 (adenosine A2B receptor): 10 to 50 nM
- IC50 (adenosine A3 receptor): > 500 nM

Compound: COc1ccc([C@H](C)Nc2nc(C(=O)NCc3cccnc3)c3sccc3n2)cc1 [Example Z435, (S)-2-((1-(4-Methoxyphenyl)ethyl)amino)-N-(pyridin-3-ylmethyl)thieno[3,2-d]pyrimidine-4-carboxamide]
- IC50 (adenosine A2A receptor): 10 to 50 nM
- IC50 (adenosine A1 receptor): 100 to 500 nM
- Ratio (adenosine A2B receptor): 0.04
- IC50 (adenosine A2B receptor): 100 to 500 nM
- IC50 (adenosine A3 receptor): 50 to 100 nM

Compound: Cc1cc2nc(N[C@@H](C)c3cncc(F)c3)nc(C(=O)NCCC3CN(C(=O)OC(C)(C)C)C3)c2s1 [Example Z485, tert-Butyl (S)-3-(2-(2-((1-(5-fluoropyridin-3-yl)ethyl)amino)-6-methylthieno[3,2-d]pyrimidine-4-carboxamido)ethyl)azetidine-1-carboxylate]
- IC50 (adenosine A2A receptor): 100 to 500 nM
- IC50 (adenosine A1 receptor): 100 to 500 nM
- Ratio (adenosine A2B receptor): 8.16
- IC50 (adenosine A2B receptor): 10 to 50 nM
- IC50 (adenosine A3 receptor): > 500 nM

Compound: Cc1cc2nc(N[C@@H](C)c3cncc(F)c3)nc(C(=O)N3CC(NC(=O)OCC(C)(C)C)C3)c2s1 [Example Z591, Neopentyl (S)-(1-(2-((1-(5-fluoropyridin-3-yl)ethyl)amino)-6-methylthieno[3,2-d]pyrimidine-4-carbonyl)azetidin-3-yl)carbamate]
- IC50 (adenosine A2A receptor): < 10 nM
- IC50 (adenosine A1 receptor): > 500 nM
- Ratio (adenosine A2B receptor): 0.14
- IC50 (adenosine A2B receptor): 10 to 50 nM
- IC50 (adenosine A3 receptor): 10 to 50 nM

Compound: Cc1csc2c(C(=O)NC3CCC3)nc(N[C@@H](C)c3ccccn3)nc12 [Example Z456, (S)—N-Cyclobutyl-7-methyl-2-((1-(pyridin-2-yl)ethyl)amino)thieno[3,2-d]pyrimidine-4-carboxamide]
- IC50 (adenosine A2A receptor): 10 to 50 nM
- IC50 (adenosine A1 receptor): > 500 nM
- Ratio (adenosine A2B receptor): 2.47
- IC50 (adenosine A2B receptor): < 10 nM
- IC50 (adenosine A3 receptor): 50 to 100 nM

Compound: Cc1cc2nc(N[C@@H](C)c3cncc(F)c3)nc(C(=O)N3CC(CO)C3)c2s1 [Example Z494, (S)-(2-((1-(5-Fluoropyridin-3-yl)ethyl)amino)-6-methylthieno[3,2-d]pyrimidin-4-yl)(3-(hydroxymethyl)azetidin-1-yl)methanone]
- IC50 (adenosine A2A receptor): 100 to 500 nM
- IC50 (adenosine A1 receptor): > 500 nM
- Ratio (adenosine A2B receptor): 146.92
- IC50 (adenosine A2B receptor): < 10 nM
- IC50 (adenosine A3 receptor): > 500 nM
